Test results reported in ChEMBL document CHEMBL5727810, “GLP-1 receptor agonists and uses thereof” (2020).

Tests used:
[1] = CHO GLP-1R Clone C6 Assay 2: GLP-1R-mediated agonist activity was determined with a cell-based functional assay utilizing an HTRF (Homogeneous Time-Resolved Fluorescence) cAMP detection kit (cAMP HI Range Assay Kit; Cis Bio cat #62AM6PEJ) that measures cAMP levels in the cell. The method is a competitive immunoassay between native cAMP produced by the cells and exogenous cAMP labeled with the dye …
Description: The method is a competitive immunoassay between native cAMP produced by the cells and exogenous cAMP labeled with the dye d2. The tracer binding is visualized by a mAb anti-cAMP labeled with Cryptate. The specific signal (i.e. energy transfer) is inversely proportional to the concentration of cAMP in either a standard or an experimental sample.The human GLP-1R coding sequence (NCBI Reference Sequence NP_002053.3, including naturally-occurring variant Leu260Phe) was subcloned into pcDNA5-FRT-TO and a clonal CHO cell line stably expressing a low receptor density was isolated using the Flp-In™ T-Rex™ System, as described by the manufacturer (ThermoFisher). […] Following the 30 minute incubation, 10 μL of labeled d2 cAMP and 10 μL of anti-cAMP antibody (both diluted 1:20 in cell lysis buffer; as described in the manufacturer's assay protocol) were added to each well of the assay plate. […] Raw data were converted to nM cAMP by interpolation from a cAMP standard curve (as described in the manufacturer's assay protocol) and the percent effect was determined relative to a saturating concentration of the full agonist GLP-1 (1 μM) included on each plate. EC50 determinations were made from agonist dose response curves analyzed with a curve fitting program using a 4-parameter logistic dose response equation.

[2] = CHO GLP-1R Clone H6 Assay 1: GLP-1R-mediated agonist activity was determined with a cell-based functional assay utilizing an HTRF (Homogeneous Time-Resolved Fluorescence) cAMP detection kit (cAMP HI Range Assay Kit; CisBio cat #62AM6PEJ) that measures cAMP levels in the cell. The method is a competitive immunoassay between native cAMP produced by the cells and exogenous cAMP labeled with the dye …
Description: The method is a competitive immunoassay between native cAMP produced by the cells and exogenous cAMP labeled with the dye d2. The tracer binding is visualized by a mAb anti-cAMP labeled with Cryptate. […] A 1 mL sample of the cell suspension in growth media was counted on a Becton Dickinson ViCell to determine cell viability and cell count per mL. […] Following the 30 minute incubation, 10 μL of labeled d2 cAMP and 10 μL of anti-cAMP antibody (both diluted 1:20 in cell lysis buffer; as described in the manufacturer's assay protocol) were added to each well of the assay plate. […] Raw data were converted to nM cAMP by interpolation from a cAMP standard curve (as described in the manufacturer's assay protocol) and the percent effect was determined relative to a saturating concentration of the full agonist GLP-17-36 (1 μM) included on each plate. EC50 determinations were made from agonist dose-response curves analyzed with a curve fitting program using a 4-parameter logistic dose response equation.

SMILES | EC50 [1] [nM] | EC50 [2] [nM]
COCCn1c(C2CC23CCN(c2cccc4c2OC(C)(c2ccc(Cl)cc2F)O4)CC3)nc2ccc(C(=O)O)cc21 (configuration not stated) | > 20000 | –
COCCn1c(CN2CCN(c3cccc4c3O[C@H](c3ccc(Cl)cc3F)O4)CC2)nc2ccc(C(=O)OC)cc21 | > 20000 | 880
COCCn1c(CN2CCN(c3cccc4c3O[C@@H](c3ccc(Cl)cc3F)O4)CC2)nc2ccc(C(=O)OC)cc21 | 260 | 6.6
COCCn1c([C@@H]2CC23CCN(c2cccc4c2OC(C)(c2ccc(Cl)cc2F)O4)CC3)nc2ccc(C(=O)OC)cc21 (some centres not stated) | > 20000 | > 18000
C[C@]1(c2ccc(Cl)cc2F)Oc2cccc(C3CCN(Cc4nc5ccc(C(=O)O)cc5n4Cc4ncco4)CC3)c2O1 | 38 | 4.5
COCCn1c([C@H]2CC23CCN(c2cccc4c2OC(C)(c2ccc(Cl)cc2F)O4)CC3)nc2ccc(C(=O)OC)cc21 (some centres not stated) | 120 | 7.7
COCCn1c(CN2CCC(c3cccc4c3OC(c3ccc(Cl)cc3F)O4)CC2)nc2ccc(C(=O)O)cc21 (single isomer, unassigned) | > 20000 | –
